Assay results as given in patent publication US20240158339A1, “TYRAMINE CONTAINING HYDROXYCINNAMIC ACID AMIDE DERIVATIVES AND METHODS OF USE THEREOF” (Brightseed, Inc., priority 2018, published 2024).
“Also recorded” adds a separate entry of the source.

How the values were obtained:
insulin mRNA = test: Insulin mRNA levels by quantitative PCR; assay type: cell-based; settings: FIG. 2
Protocol: (§1) Expression of Insulin and HNF4α. RNA was purified using a RNEASY® chromatographic separation and isolation kits (Qiagen), and converted to cDNA using the gScript™ cDNA SuperMix (Quanta Biosciences). Q-PCR was conducted with cDNA corresponding to 2 μg of RNA using an Opticon Real-Time System (MJ Research) and QPCR SuperMix (BioPioneer). See All mRNA values were normalized to 18S rRNA values and are expressed as fold changes over vehicle-treated control.

HNF4α mRNA = HNF4α mRNA levels by quantitative PCR; assay type: cell-based; settings: FIG. 3
Protocol: as §1

E47MER = test: Counter-screen for estrogenic activity (E47MER luciferase reporter in HeLa cells); assay type: cell-based, human; settings: with 1 μM or without tamoxifen, FIG. 5
Protocol: Counter-Screen for Estrogenic Activity. Estrogenic activity was monitored by co-transfection of a reporter plasmid containing a multimerized E-box 5′ of a minimal promoter fused to the Firefly luciferase gene with wild-type E47 or E47MER (Kiselyuk, et al. (2010) J. Biomol. Screen 15(6):663-70). HeLa cells were transfected using polyethylenimine, 0.2 μg 4RTK-Luc plasmid and either 0.3 μg of human E47, E47MER or pMSCVhph vector in 50 μl of serum-free Dulbecco's modification of Eagle medium per well. Transfections included Renilla luciferase (pRL-TK) plasmid as a control for transfection efficacy. Transfection conditions were as described in the PPRE-Luc reporter assay of Kiselyuk, et al. ((2010) J. Biomol. Screen 15(6):663-70). Sixteen hours after transfection, culture media were changed and maintained for 48 hours with tamoxifen and/or compound or vehicle (DMSO). Cells were then lysed and assayed for luciferase activity using the Promega DUAL-LUCIFERASE® reporter assay kit (Promega Corp., Madison, WI), and luminescence was measured using the Veritas™ Microplate Luminometer (Turner Biosystems, Sunnyvale, CA). Data were normalized to Renilla luciferase (pRL-TK) and expressed as fold-change over vehicle alone.

[1] = Hepatic microsome stability assay, mouse; assay type: in vitro ADME; settings: for % Remaining: mouse microsomes
Protocol: (§2) Hepatic Microsome Assay. Hepatic microsomes stability assays were performed in accordance with known methods (Peddibhotla, et al. (2013) ACS Med. Chem. Lett. 4:846-851). Briefly, 3 μL of 25 μM compound solution in acetonitrile were incubated with 123 μL of mouse, human or rat liver microsomes (Xenotech, Kansas City, KS). After preincubation at 37° C. for 10 minutes, enzyme reactions were initiated by adding 120 !at of NADPH-generating system (2 mM NADP+, 10 mM glucose-6-phosphate, 0.4 U/ml glucose-6-phosphate dehydrogenase, and 5 mM MgCl2) in the presence of 100 mM potassium phosphate buffer (pH 7.4). […] The microsomal concentrations used were 1.0 mg/mL. Compounds were incubated in microsomes for 0, 5, 15, 30 and 60 minutes. The reactions were stopped by the addition of ice cold ACN and the reaction mixtures were centrifuged at 10,000 g for 10 minutes before the supernatant was removed for analysis. A 10 μL portion of the resulting extract was injected on a Thermo HPLC system equipped with PAL CTC plate sampler (96-well plate), Dionex Ultimate 3000 binary pump (flow rate at 0. 600 mL/min), Dionex Ultimate 3000 thermostatted column compartment (temperature at 40° C.), Thermo Endura Mass Spectrometer (ESI source), using a Thermo Scientific Accucore C18 (2.6 μM, 2.1×50 mm) column. A gradient was run starting at 95% H2O (0.1% formic acid) and 5% ACN (0. 1% formic acid) during the first 0. 5 min, then under gradient condition of 5-100% ACN (0.1% formic acid) from minute 0. 5 to 3.5, finishing at 95% H2O (0.1% formic acid) and 5% ACN (0.1% formic acid) over 0.5 min, with another 1 min at 95:5 to re-equilibrate.

[2] = Hepatic microsome stability assay, rat; assay type: in vitro ADME; settings: for % Remaining: rat microsomes
Protocol: as §2

[3] = Hepatic microsome stability assay, human; assay type: in vitro ADME
Protocol: as §2

HepG2 cells = test: Lipid clearance (steatosis assay) in HepG2 cells; assay type: cell-based; settings: HepG2 liver cells, 20 μM
Protocol: (§3) Lipid Clearance in HepG2 and T6PNE Cells (Steatosis Assay). The steatosis assay was carried out as described (Kiselyuk, et al. (2012) Chem. Biol. 19(7):806-818) with the exception of the drug concentration, which was 20 μM for N-trans-caffeoyltyramine with 0.25 mM palmitate in HepG2 cell lines, and 10 μM of either N-trans-caffeoyltyramine, N-trans-caffeoyltyramine, or p-coumaroyltyramine, with 0.25 mM palmitate in T6PNE cell lines. Steatosis was assessed using the Oil Red O Method for Fats kits (Poly Scientific; Warrington, PA), per manufacturer's guidelines. Briefly, frozen tissue slides or fixed cells were incubated in neat propylene glycol for 2 minutes and Oil Red O solution for […] for slides or 1 hour for fixed cells, differentiated in 85% propylene glycol solution for 1 minute, washed twice with distilled water and stained in Hematoxylin of 10 seconds. Slides were mounted with glycerin jelly mounting medium.

T6PNE cells = test: Lipid clearance (steatosis assay) in T6PNE cells; assay type: cell-based
Protocol: T6PNE cells were pretreated for 1 day with 0.06 mM, 0.12 mM or 0.25 mM palmitate at which time 15 μM N-trans-caffeoyltyramine or control (DMSO) was added. Cells were harvested on day 3, 6 and 8 and subjected to staining with Nile Red and […]. Results are expressed as fold change in Nile Red staining: +palmitate/10% FBS medium (no palmitate).
as §3

in vivo = settings: male, C57BL/6, mouse
Protocol: Bioavailability Determinations.
A blood sample from each mouse was drawn at 0.25, 0.5, 1, 2, 4, 6 and 24 hours after administration. An 8μL aliquot of blood was used for analysis. After adding 200 μL of an internal standard comprising 100 ng/mL Labetalol, 100 ng/mL dexamethasone, 100 ng/mL tolbutamide, 100 ng/mL Verapamil, 100 ng/mL Glyburide, and 100 ng/mL Celecoxib in ACN, the mixture was vortex-mixed and centrifuged at 12000 rpm for 15 minutes at 4° C. to pellet precipitated protein. Four μL at of the supernatant was injected for LC-MS/MS analysis. Bioavailability (%) was calculated using AUC0-inf(% AUCExtra<20%) or AUC0-last, (% AUCExtra >20%) with nominal dose.

[4] = liver microsomes, pH 7.4, 1 μM, read-out: Clearance Rate
[5] = liver microsomes, pH 7.4, 10 μM
[6] = liver microsomes, pH 7.4, 10 μM, read-out: Clearance Rate

## O=C(/C=C/c1ccc(O)c(O)c1)NCCc1ccc(O)cc1 [N-trans-caffeoyltyramine]
Insulin mRNA
  insulin gene expression: upregulated
HNF4α mRNA
  HNF4α gene expression: upregulated
E47MER
  estrogenic activity: did not exhibit estrogenic activity
[1]; liver microsomes, pH 7.4, 1 μM
  half-life at 1 μM: 0.8 min
[1]; [4]
  microsomal CLint at 1 μM: 1760 µL/min/mg
[1]; [5]
  half-life at 10 μM: 6.9 min
[1]; [6]
  microsomal CLint at 10 μM: 200 µL/min/mg
[1]; 1 μM
  % Remaining: 0.4%
[1]; 10 μM
  % Remaining: 0.3%
[2]; liver microsomes, pH 7.4, 1 μM
  half-life at 1 μM: 2.1 min
[2]; [4]
  microsomal CLint at 1 μM: 674 µL/min/mg
[2]; [5]
  half-life at 10 μM: 22.4 min
[2]; [6]
  microsomal CLint at 10 μM: 30.9 µL/min/mg
[2]; 1 μM
  % Remaining: 0.6%
[2]; 10 μM
  % Remaining: 33.6%
[3]; human microsomes
  apparent major biotransformation pathway: oxidation of the left-hand aryl ring
[3]; human microsomes, 1 μM
  % Remaining: 55.3%
[3]; human microsomes, 10 μM
  % Remaining: 85.4%
[3]; human, rat and mouse hepatic microsomes
  stability in hepatic microsomes: stable
[3]; liver microsomes, pH 7.4, human microsomes, 1 μM
  half-life at 1 μM: 77.3 min
[3]; liver microsomes, pH 7.4, human microsomes, 1 μM, read-out: Clearance Rate
  microsomal CLint at 1 μM: 17.9 µL/min/mg
[3]; liver microsomes, pH 7.4, human microsomes, 10 μM
  half-life at 10 μM: 262 min
[3]; liver microsomes, pH 7.4, human microsomes, 10 μM, read-out: Clearance Rate
  microsomal CLint at 10 μM: 5.3 µL/min/mg
HepG2 cells
  clearing of fats, Oil Red O staining: capable of clearing harmful fats from the liver
HepG2 cells; 0.25 mM palmitate
  accumulation of fats: inhibited accumulation of fats
T6PNE cells; T6PNE cells pretreated 1 day with 0.06-0.25 mM palmitate, 15 μM compound, Nile Red, FIG. 6
  lipid accumulation when palmitate was added prior to compound: reduced lipid accumulation; also recorded: can reverse fat accumulation
T6PNE cells; T6PNE cells, 0.25 mM palmitate, 10 μM compound
  fat accumulation: inhibition of fat accumulation
In vivo
  bioavailability: ~11%
